In US7981903B2, “2-[2-{phenylamino}-1H-pyrrolo[2,3-D]pyrimidin-4-yl)amino] benzamide derivatives as IGF-1R inhibitors for the treatment of cancer” (GlaxoSmithKline LLC, priority 2007, dated 2011):

How the values were obtained:
human IR (hIR) = target: T1, human IR (hIR) (Homo sapiens, UniProt P06213); test: TR-FRET kinase assay of purified hIR; format: biochemical; settings: activated hIR 0.5 nM, 10 μM ATP, values given as pIC50 category
T1 construct: containing amino acid residues 979-1382 of human IR; made in house; host or cells: Sf9 cells (baculovirus), same process as hIGF1R
T1 sequence (P06213 979-1382): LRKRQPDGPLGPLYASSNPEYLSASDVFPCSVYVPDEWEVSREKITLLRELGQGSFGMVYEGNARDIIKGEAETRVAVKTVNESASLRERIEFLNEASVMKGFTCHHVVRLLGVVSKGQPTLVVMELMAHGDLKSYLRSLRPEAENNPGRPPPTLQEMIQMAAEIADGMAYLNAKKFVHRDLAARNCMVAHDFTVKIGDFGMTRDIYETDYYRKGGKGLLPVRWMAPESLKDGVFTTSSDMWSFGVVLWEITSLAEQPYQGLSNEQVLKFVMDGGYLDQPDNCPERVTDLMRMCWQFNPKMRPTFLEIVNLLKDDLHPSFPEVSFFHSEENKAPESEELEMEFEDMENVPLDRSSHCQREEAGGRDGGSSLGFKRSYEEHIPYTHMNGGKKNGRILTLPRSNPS
Protocol: (§1) Time Resolved Fluorescence Resonance Energy Transfer (TR-FRET) assays were carried out on the exemplified compounds as follows:
(§2) Purity is determined by HPLC. The calculated molecular mass of the peptide is 2216 dalton. Tyrosine phosphorylation by human IGF1R (hIGF1R) or human IR (hIR) occurs as indicated (Y*) in the peptide sequence described. Solid peptide sample is dissolved to approximately 1 mM in DMSO, aliquoted, and stored at −20° C. until use. True peptide concentration is determined by amino acid analysis.
hIR: GST-rTEV-IR(979-1382) containing amino acid residues 979-1382 of human IR (as annotated by NCBI accession number NP_000199) is expressed and purified by the same process as hIGF1R. […] Samples, in 25 mM Tris-HCl, 250 mM NaCl, 5% glycerol, 1 mM DTT, pH 7.5, are stored at −80° C. until use.
(§3) hIR: Activation of GST-rTEV-IGF-1R(957-1367) is achieved by a 5 minute incubation of hIR (2.7 μM final) with 2 mM ATP in 100 mM HEPES, 10 mM MgCL2, 0.1 mg/ml BSA, at room temperature. Autophosphorylation is stopped by addition of EDTA (to 100 mM final). Aliquoted samples are flash frozen in liquid nitrogen and stored at −80° C. until use.
(§4) Assays are performed in 384-well (Greiner, Catalog No. 784076) microtiter plates. Reaction buffer (50 mM HEPES buffer, pH 7.5; 10 mM MgCL2; 3 mM DTT; 1 mM CHAPS; 0.1 mg/ml BSA) for peptide phosphorylation (10 μl volume) contained, in final concentrations, 500 nM biotinylated peptide substrate; 10 μM ATP; and purified, activated hIGF1R or hIR (0.5 nM). Compounds, titrated in DMSO, are evaluated at eleven concentrations ranging from 50 μM to 0.2 nM. […] Reactions are incubated for 1 hour at room temperature and are stopped by a 5 μl addition of EDTA (to 33 mM). A further addition of 5 μl detection reagents (for final 7 nM Streptavidin-APC (Perkin Elmer #CR^130-150), 1 nM Europium-labeled anti-phosphotyrosine monoclonal antibody (PerkinElmer #AD0067), added in reaction buffer (without DTT), is required for signal generation. After 30 minutes, signal is read on PerkinElmer Viewlux microplate imager or Wallac Victor fluorometer.
(§5) The data for compound concentration responses were plotted as % Inhibition, calculated with the data reduction formula 100*(1-[(U1-C2)/(C1-C2)]), versus concentration of compound, where • U is the unknown value, • C1 is the average control value obtained for DMSO only, and • C2 is the average control value obtained for reactions stopped with EDTA at • t=0.
(§6) Data were fitted to the curve described by: y=((Vmax*x)/(K+x)) where • Vmax is the upper asymptote and • K is the IC50.

ALK = ALK (Homo sapiens, UniProt Q9UM73); test: ALK enzyme assay (HTRF); format: biochemical; settings: 0.25 nM ALK, 15.0 μM ATP, values given as pIC50 category
Chain of ALK (Q9UM73 19-1620): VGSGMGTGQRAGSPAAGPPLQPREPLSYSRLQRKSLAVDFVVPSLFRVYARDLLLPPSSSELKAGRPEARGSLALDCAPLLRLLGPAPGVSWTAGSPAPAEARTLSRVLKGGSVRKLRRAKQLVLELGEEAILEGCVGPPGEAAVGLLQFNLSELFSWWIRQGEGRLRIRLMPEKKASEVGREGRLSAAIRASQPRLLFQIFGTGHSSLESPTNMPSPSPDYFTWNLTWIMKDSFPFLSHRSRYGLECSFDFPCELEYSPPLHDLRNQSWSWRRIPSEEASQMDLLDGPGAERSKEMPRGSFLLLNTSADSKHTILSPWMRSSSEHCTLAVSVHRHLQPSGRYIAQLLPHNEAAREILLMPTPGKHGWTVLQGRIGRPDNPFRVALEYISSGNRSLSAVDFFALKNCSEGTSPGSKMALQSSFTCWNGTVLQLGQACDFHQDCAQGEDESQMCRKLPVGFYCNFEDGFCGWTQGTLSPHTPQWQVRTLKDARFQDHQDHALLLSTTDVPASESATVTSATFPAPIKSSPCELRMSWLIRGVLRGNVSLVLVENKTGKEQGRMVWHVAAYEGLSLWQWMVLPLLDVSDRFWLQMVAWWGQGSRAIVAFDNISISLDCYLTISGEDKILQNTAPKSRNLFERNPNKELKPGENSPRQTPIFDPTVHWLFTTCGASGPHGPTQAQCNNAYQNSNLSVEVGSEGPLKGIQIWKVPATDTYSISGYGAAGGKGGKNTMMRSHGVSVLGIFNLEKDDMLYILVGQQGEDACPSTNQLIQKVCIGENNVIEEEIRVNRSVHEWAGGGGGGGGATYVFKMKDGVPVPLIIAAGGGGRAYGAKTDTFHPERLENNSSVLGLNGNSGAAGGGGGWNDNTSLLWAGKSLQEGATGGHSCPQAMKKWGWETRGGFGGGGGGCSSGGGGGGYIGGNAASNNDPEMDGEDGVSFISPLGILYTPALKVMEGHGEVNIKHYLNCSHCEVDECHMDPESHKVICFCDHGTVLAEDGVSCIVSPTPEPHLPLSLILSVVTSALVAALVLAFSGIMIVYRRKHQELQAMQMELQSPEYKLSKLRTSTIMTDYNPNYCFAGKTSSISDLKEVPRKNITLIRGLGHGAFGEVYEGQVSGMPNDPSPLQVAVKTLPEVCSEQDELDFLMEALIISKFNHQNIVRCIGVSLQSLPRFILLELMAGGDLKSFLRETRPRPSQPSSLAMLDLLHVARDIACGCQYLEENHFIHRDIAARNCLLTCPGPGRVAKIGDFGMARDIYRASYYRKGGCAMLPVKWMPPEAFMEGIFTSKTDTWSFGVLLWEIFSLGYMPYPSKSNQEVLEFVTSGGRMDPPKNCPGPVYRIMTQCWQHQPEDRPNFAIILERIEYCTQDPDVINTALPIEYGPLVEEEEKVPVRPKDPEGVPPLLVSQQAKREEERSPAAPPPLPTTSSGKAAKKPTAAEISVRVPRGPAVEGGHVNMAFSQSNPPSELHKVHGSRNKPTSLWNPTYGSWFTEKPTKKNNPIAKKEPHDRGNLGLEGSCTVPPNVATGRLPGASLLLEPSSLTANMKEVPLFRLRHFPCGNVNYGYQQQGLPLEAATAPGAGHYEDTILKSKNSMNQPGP
Protocol: The method measures the ability of the isolated enzyme to catalyse the transfer of the gamma-phosphate from ATP onto the tyrosine residue of a biotinylated synthetic peptide. The extent of tyrosine phosphorylation was measured using an anti-phosphotyrosine antibody, and quantified by homogenous time-resolved fluorescence (HTRF) assay purchased from CisBio (62TK0PEJ).
Reactions were performed in black 384-well polystyrene low volume plates in a final volume of 5 μl.
The reactions were then started by adding the substrate mix. The reactions were allowed to proceed for 120 minutes at 20° C. The reactions were then terminated by the addition of 5 μl HTRF detection mix to each well. The final concentrations of the detection reagents were: 50 mM HEPES (pH7.0); 0.1% BSA; 0.8 M KF; 20 mM EDTA; 1 mM CHAPS; TK-antibody Europium Cryptate; and 41 nM streptavidin-XL665. Assay plates were left unsealed, stacked and incubated at 20° for 60 minutes. Quantification of activity was achieved by counting in an Envision Counter (PerkinElmer).
Compounds under analysis were dissolved in Me2SO to 1.0 mM and serially diluted 1 to 3 with Me2SO through twelve dilutions. 0.05 μl of each concentration was transferred to the corresponding well of an assay plate. This creates a final compound concentration range from 0.00017 to 10 μM.
The data for dose responses were plotted as % Inhibition calculated with the data reduction formula 100*(1-(U1-C2)/(C1-C2)) versus concentration of compound where U is the unknown value, C1 is the average control value obtained for 1% DMSO, and C2 is the average control value obtained for 0.1 M EDTA. Data were fitted with a curve described by:
[formula] where A is the minimum y, B is the maximum y concentration [M], D is the slope factor, and x is the log10 of the compound.

[1] = target: T2, NIH-3T3 cells overexpressing human IGF-1R (Homo sapiens, UniProt P08069); test: IGF-1R cellular autophosphorylation (DELFIA); format: cell-based
T2 construct: expressed in transfected cells; host or cells: NIH-3T3 (mouse fibroblasts)
T2 sequence (P08069 31-1367): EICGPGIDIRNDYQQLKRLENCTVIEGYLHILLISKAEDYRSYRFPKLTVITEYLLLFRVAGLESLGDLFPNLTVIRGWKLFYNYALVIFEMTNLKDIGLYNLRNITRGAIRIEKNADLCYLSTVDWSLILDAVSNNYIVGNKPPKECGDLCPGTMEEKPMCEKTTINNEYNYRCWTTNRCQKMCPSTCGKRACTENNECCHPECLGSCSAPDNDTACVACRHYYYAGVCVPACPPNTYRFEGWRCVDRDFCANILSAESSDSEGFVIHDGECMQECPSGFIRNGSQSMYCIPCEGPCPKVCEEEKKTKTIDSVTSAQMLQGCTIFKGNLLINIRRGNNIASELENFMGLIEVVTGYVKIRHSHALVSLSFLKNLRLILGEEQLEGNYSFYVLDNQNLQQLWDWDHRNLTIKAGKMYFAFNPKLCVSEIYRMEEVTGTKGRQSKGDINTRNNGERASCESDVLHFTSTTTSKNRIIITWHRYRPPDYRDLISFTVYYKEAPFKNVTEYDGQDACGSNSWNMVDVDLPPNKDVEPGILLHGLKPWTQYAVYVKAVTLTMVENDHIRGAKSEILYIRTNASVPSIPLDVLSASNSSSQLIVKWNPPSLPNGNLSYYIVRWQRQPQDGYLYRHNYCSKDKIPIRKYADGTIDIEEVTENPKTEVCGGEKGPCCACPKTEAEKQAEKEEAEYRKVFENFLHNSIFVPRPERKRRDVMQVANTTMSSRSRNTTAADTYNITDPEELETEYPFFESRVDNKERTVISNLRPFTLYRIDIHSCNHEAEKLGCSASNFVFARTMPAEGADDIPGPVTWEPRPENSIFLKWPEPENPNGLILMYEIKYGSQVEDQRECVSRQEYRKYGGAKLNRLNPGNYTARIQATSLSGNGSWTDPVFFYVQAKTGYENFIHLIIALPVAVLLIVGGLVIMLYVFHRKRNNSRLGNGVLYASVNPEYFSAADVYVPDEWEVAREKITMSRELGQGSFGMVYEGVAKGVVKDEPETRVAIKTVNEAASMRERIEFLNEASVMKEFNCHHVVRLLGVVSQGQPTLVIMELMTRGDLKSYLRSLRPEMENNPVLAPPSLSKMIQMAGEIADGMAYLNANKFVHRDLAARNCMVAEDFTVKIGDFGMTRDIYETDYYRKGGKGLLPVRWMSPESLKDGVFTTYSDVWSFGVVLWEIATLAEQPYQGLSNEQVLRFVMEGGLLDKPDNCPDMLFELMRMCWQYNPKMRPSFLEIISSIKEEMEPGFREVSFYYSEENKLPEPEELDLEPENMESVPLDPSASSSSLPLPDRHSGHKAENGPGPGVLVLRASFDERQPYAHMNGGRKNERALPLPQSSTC
Protocol: NIH-3T3 cells overexpressing human IGF-1R or IR were plated in 96-well plates (10,000 cells/well) in culture media containing 10% fetal bovine serum and incubated at 37° C. in a 5% CO2 incubator. Twenty four hours post-plating, cells were treated with different concentrations of test compounds ranging from 30 uM to 1.5 nM. Two hours after compound addition, cells were stimulated with either human IGF-1 (30 ng/ml) or insulin (3 ug/ml) for 15 minutes. Cell lysates are analyzed for phosphorylated receptors using dissociation enhanced lanthanide fluor-immuno assay (DELFIA) with anti-IGF-1R (MAB391, R&D Systems, Minneapolis, Minn.) or anti-IRβ (sc-711, Santa Cruz Biotechnology, Santa Cruz, Calif.) capture antibody and europium-labeled anti-pTyr antibody (Eu-N1 PT66, Perkin Elmer, Waltham, Mass.) for detection. The fluorescence signal for cells treated with compounds was expressed as percent relative to 100% stimulation (IGF-1 or insulin stimulated signal).

human IGF1R (hIGF1R) = target: T3, human IGF1R (hIGF1R) (Homo sapiens, UniProt P08069); test: TR-FRET kinase assay of purified hIGF1R; format: biochemical; settings: activated hIGF1R 0.5 nM, 10 μM ATP, values given as pIC50 category, read-out: IGF-1R pIC50 (converted)
T3 construct: containing amino acid residues 957-1367 of human IGF1R; made in house; host or cells: Sf9 cells (baculovirus)
T3 sequence (P08069 957-1367): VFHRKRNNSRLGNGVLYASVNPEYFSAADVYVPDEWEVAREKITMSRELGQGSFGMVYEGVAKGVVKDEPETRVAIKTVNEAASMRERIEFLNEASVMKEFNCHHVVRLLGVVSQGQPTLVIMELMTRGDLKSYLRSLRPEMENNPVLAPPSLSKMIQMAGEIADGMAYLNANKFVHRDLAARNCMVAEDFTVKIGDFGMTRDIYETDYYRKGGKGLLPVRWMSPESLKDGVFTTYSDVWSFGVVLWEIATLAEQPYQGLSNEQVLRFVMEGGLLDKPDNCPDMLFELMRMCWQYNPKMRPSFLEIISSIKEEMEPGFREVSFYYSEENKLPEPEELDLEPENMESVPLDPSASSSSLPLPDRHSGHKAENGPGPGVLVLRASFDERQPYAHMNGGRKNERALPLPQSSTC
Protocol: as §1, §2
hIGF1R: GST-rTEV-IGF-1R(957-1367) containing amino acid residues 957-1367 of human IGF1R (as annotated by National Center for Biotechnology Information (NCBI) accession number NP_000866) is purified from a baculovirus expression system in Sf9 cells using Glutathione Sepharose 4FF column chromatography followed by Sephadex-200 size exclusion column chromatography. […] Samples, in 25 mM Tris-HCl, 250 mM NaCl, 5% glycerol, 1 mM DTT, pH 7.5, are stored at −80° C. until use.
as §3, with “hIGF1R: Activation” for “hIR: Activation”, “a 4” for “a 5”, “of hIGF1R” for “of hIR”, “in 50” for “in 100”, “HEPES, 20” for “HEPES, 10”
as §4, §5, §6

SMILES	IC50 (human IR (hIR))	IC50 (ALK)	IC50 [1]	IC50 (human IGF1R (hIGF1R))
COc1cc(C2CCCN(C)C2)ccc1Nc1nc(Nc2ccc(F)cc2C(N)=O)c2cc[nH]c2n1 (stereo not drawn) [Example 56, 5-fluoro-2-[(2-{[2-(methyloxy)-4-(1-methyl-3-piperidinyl)phenyl]amino}-1H-pyrrolo[2,3-d]pyrimidin-4-yl)amino]benzamide]	0.251 to 1 nM	0.251 to 1 nM	< 100 nM	–
CCCN1CCC=C(c2ccc(Nc3nc(Nc4cccc(F)c4C(N)=O)c4cc[nH]c4n3)c(C)c2)C1 [Example 40, 2-fluoro-6-[(2-{[2-methyl-4-(1-propyl-1,2,5,6-tetrahydro-3-pyridinyl)phenyl]amino}-1H-pyrrolo[2,3-d]pyrimidin-4-yl)amino]benzamide]	–	1.26 to 3.98 nM	100 to 500 nM	1.26 to 3.98 nM
CCCN1CCN(c2ccc(Nc3nc(Nc4ccccc4C(N)=O)c4cc[nH]c4n3)c(OC)c2)CC1 [Example 8, 2-[(2-{[2-(methyloxy)-4-(4-propyl-1-piperazinyl)phenyl]amino}-1H-pyrrolo[2,3-d]pyrimidin-4-yl)amino]benzamide]	0.251 to 1 nM	–	< 100 nM	1.26 to 3.98 nM
CNC(=O)c1c(F)cccc1Nc1nc(Nc2cc3c(cc2OC)CCN3C(=O)[C@H]2CCCN2C)nc2[nH]ccc12 [Example 129, 2-fluoro-N-methyl-6-[(2-{[5-(methyloxy)-1-(1-methyl-D-prolyl)-2,3-dihydro-1H-indol-6-yl]amino}-1H-pyrrolo[2,3-d]pyrimidin-4-yl)amino]benzamide]	5.01 to 158 nM	5.01 to 200 nM	–	5.01 to 200 nM
CCOc1cc2c(cc1Nc1nc(Nc3cccc(F)c3C(=O)NC)c3cc[nH]c3n1)N(C(=O)CN(C)C)CCC2 [Example 133, 2-[(2-{[1-(N,N-dimethylglycyl)-6-(ethyloxy)-1,2,3,4-tetrahydro-7-quinolinyl]amino}-1H-pyrrolo[2,3-d]pyrimidin-4-yl)amino]-6-fluoro-N-methylbenzamide]	1.26 to 3.98 nM	1.26 to 3.98 nM	–	1.26 to 3.98 nM
CCCN1CCC=C(c2ccc(Nc3nc(Nc4cc(C)ccc4C(N)=O)c4cc[nH]c4n3)c(C)c2)C1 [Example 35, 4-methyl-2-[(2-{[2-methyl-4-(1-propyl-1,2,5,6-tetrahydro-3-pyridinyl)phenyl]amino}-1H-pyrrolo[2,3-d]pyrimidin-4-yl)amino]benzamide]	5.01 to 158 nM	5.01 to 200 nM	–	5.01 to 200 nM
CCCN1CCC=C(c2ccc(Nc3nc(Nc4ccc(C)cc4C(N)=O)c4cc[nH]c4n3)c(C)c2)C1 [Example 32, 5-methyl-2-[(2-{[2-methyl-4-(1-propyl-1,2,5,6-tetrahydro-3-pyridinyl)phenyl]amino}-1H-pyrrolo[2,3-d]pyrimidin-4-yl)amino]benzamide]	1.26 to 3.98 nM	1.26 to 3.98 nM	–	1.26 to 3.98 nM
COCCN(C)CC(=O)N1CCc2cc(OC)c(Nc3nc(Nc4cccc(F)c4C(N)=O)c4cc[nH]c4n3)cc21 [Example 170, 2-fluoro-6-[(2-{[1-{N-methyl-N-[2-(methyloxy)ethyl]glycyl}-5-(methyloxy)-2,3-dihydro-1H-indol-6-yl]amino}-1H-pyrrolo[2,3-d]pyrimidin-4-yl)amino]benzamide]	0.251 to 1 nM	1.26 to 3.98 nM	–	0.251 to 1 nM

Further lines, results first:

IC50 (human IR (hIR))	IC50 (ALK)	IC50 [1]	IC50 (human IGF1R (hIGF1R))	SMILES
5.01 to 158 nM	0.251 to 1 nM	–	5.01 to 200 nM	CCCN1CCC=C(c2ccc(Nc3nc(Nc4ccccc4C(N)=O)c4cc[nH]c4n3)c(C)c2)C1 [Example 1, 2-[(2-{[2-methyl-4-(1-propyl-1,2,5,6-tetrahydro-3-pyridinyl)phenyl]amino}-1H-pyrrolo[2,3-d]pyrimidin-4-yl)amino]benzamide]
5.01 to 158 nM	5.01 to 200 nM	–	5.01 to 200 nM	COc1ccc(CS(C)(=O)=O)cc1Nc1nc(Nc2ccccc2C(N)=O)c2cc[nH]c2n1 [Example 20, 2-{[2-({2-(methyloxy)-5-[(methylsulfonyl)methyl]phenyl}amino)-1H-pyrrolo[2,3-d]pyrimidin-4-yl]amino}benzamide]
1.26 to 3.98 nM	1.26 to 3.98 nM	–	1.26 to 3.98 nM	COc1cc(CS(C)(=O)=O)ccc1Nc1nc(Nc2ccccc2C(N)=O)c2cc[nH]c2n1 [Example 19, 2-{[2-({2-(methyloxy)-4-[(methylsulfonyl)methyl]phenyl}amino)-1H-pyrrolo[2,3-d]pyrimidin-4-yl]amino}benzamide]
0.251 to 1 nM	1.26 to 3.98 nM	–	1.26 to 3.98 nM	Cc1ccc(NC(=O)CN(C)C)cc1Nc1nc(Nc2ccccc2C(N)=O)c2cc[nH]c2n1 [Example 13, 2-{[2-({5-[(N,N-dimethylglycyl)amino]-2-methylphenyl}amino)-1H-pyrrolo[2,3-d]pyrimidin-4-yl]amino}benzamide]
0.251 to 1 nM	5.01 to 200 nM	–	1.26 to 3.98 nM	Cc1ccc(NC(=O)CN(C)C)cc1Nc1nc(Nc2ccc(Cl)cc2C(N)=O)c2cc[nH]c2n1 [Example 109, 5-chloro-2-{[2-({5-[(N,N-dimethylglycyl)amino]-2-methylphenyl}amino)-1H-pyrrolo[2,3-d]pyrimidin-4-yl]amino}benzamide]
